Assay results from patent US11414437B2, “Borate compound, and synthesis method therefor and uses thereof” (CHENGDU ORIGIN BIOTECHNOLOGY LIMITED COMPANY, priority 2017, dated 2022).
Where two headings read alike, the source gives them in different places.

Tested on: SD rats
Excerpt: The test was a single-dose toxicity test of SD rats by intragastric administration through mouth.

[1] = dose 2, 0.001662 mmol/kg single intragastric dose, 6 female rats, 14 days observation
[2] = dose 2, 0.001662 mmol/kg single intragastric dose, 6 male rats, 14 days observation
[3] = dose 3, 0.002216 mmol/kg single intragastric dose, 6 female rats, 14 days observation
[4] = dose 4, 0.00277 mmol/kg single intragastric dose, 6 female rats, 14 days observation
[5] = dose 4, 0.00277 mmol/kg single intragastric dose, 6 male rats, 14 days observation

CC(C)C[C@H](NC(=O)CNC(=O)c1cc(Br)ccc1Cl)B1OCCNCCO1 [compound 8d]
Female Suvival (dose 1, 0.001108 mmol/kg single intragastric dose, 6 female rats, 14 days observation): 6
Male Suvival (dose 1, 0.001108 mmol/kg single intragastric dose, 6 male rats, 14 days observation): 6
Female Death [1]: 2
Female Suvival [1]: 4
Male Death [2]: 0
Male Suvival [2]: 6
Female Death [3]: 5
Female Suvival [3]: 1
Male Suvival (dose 3, 0.002216 mmol/kg single intragastric dose, 6 male rats, 14 days observation): 6
Female Death [4]: 6
Female Suvival [4]: 0
Male Death [5]: 0
Male Suvival [5]: 6
Female Death (female, rat, in vivo, 0.001108 mmol/kg, 14 days): 0
Male Death (male, rat, in vivo, 0.001108 mmol/kg, 14 days): 0
Male Death (male, rat, in vivo, 0.002216 mmol/kg, 14 days): 0
